Results on 45 molecules are retold here after patent US6998258B1, “L-pantolactone-hydrolase and a method for producing D-pantolactone” (BASF Aktiengesellschaft, priority 1999, dated 2006).

The test system of experiment [1] is L-pantolactone hydrolase from Lu681. As to the kind of experiment: Optical lipase assay with resorufin ester in microtiter plate. The conditions noted are these: Lu681 enzyme, 60 to 482 U/l. It counts as biochemical, Burkholderia caryophylli.
Experiment [2] shares this test system. As to the kind of experiment: Substrate specificity of purified L-pantolactone hydrolase from Lu681 (HPLC). The class given is biochemical, Burkholderia caryophylli.
The test system of experiment [3] is L-pantolactone hydrolase from Lu5351. As to the kind of experiment: Substrate specificity of purified L-pantolactone hydrolase from Lu5351 (HPLC). It counts as biochemical, Agrobacterium radiobacter.
Experiment [4] has as its system L-pantolactone hydrolase from Burkholderia caryophylli Lu681. As to the kind of experiment: Inhibition and activation by added substances, standard assay, Lu681 enzyme. The class given is biochemical.
The subject of experiment [5] is L-pantolactone hydrolase from Agrobacterium radiobacter Lu5351. The experiment is described as follows: Inhibition and activation by added substances, standard assay, Lu5351 enzyme. It counts as biochemical.
The test system of a further experiment is D-pantolactone hydrolase. Conditions: cited from earlier work.
Experiment [6] concerns recombinant 681 lactonase. It counts as biochemical, Burkholderia caryophylli.
[7] abbreviates: added substance 1 mM, 150 mM L-pantolactone, 1 h, 30° C., vs no addition.
Where [8] appears, read: substrate 2.5 mN, 0.1 U/ml enzyme, 150 mM Pipes pH 6.8.
Setting [9] is: added substance 0.1%, vs no addition.
[10] abbreviates: substrate 150 mN, 0.1 U/ml enzyme, 150 mM Pipes pH 6.8.
Where [11] appears, read: substrate 10 mN, 0.1 U/ml enzyme, 150 mM Pipes pH 6.8.
The mark [12] stands for this setting: substrate 50 mN, 0.1 U/ml enzyme, 150 mM Pipes pH 6.8.

Where two headings read alike, the source gives them in different places. Square brackets hold non-standard residues; d marks the D form. Peptide text beside a SMILES is read from it. * marks the point of attachment. Sta = CC(C)C[C@H](N)[C@@H](O)CC(=O)O; Isovaleryl = CC(C)CC(=O)*

Regarding `CCCCCCCCCCCCOCC(COC(=O)CCCC(=O)Oc1ccc2nc3ccc(=O)cc-3oc2c1)OCCCCCCCCCCCC` (racemic) [1,2-O-Dilauryl-rac-glycero-3-glutaric acid resorufin ester], the “lipase activity as share of the L-pantolactone hydrolase activity” value in experiment [1] was “about 0.05%”. The Activity entry in experiment [2] and in experiment [3] was “(+) (key: ++: >50 U/l; +: >5 U/l; (+): >0.5 U/l; −: <0.5 U/l)” throughout.
For the molecule `O[C@H](CS)[C@H](O)CS` (racemic) [DTT, Dithiothreitol], the “Relative Activity” value was 99% in experiment [4] (setting [7]) and 106% in experiment [5] (setting [7]).
In the case of `O=C1Cc2cc(O)ccc2O1` [5-Hydroxy-2-coumaranone], in experiment [2] (setting [8]), the Activity entry is given as “+ (+: >5 U/l)”.
For the molecule `CC#N` [Acetonitrile], the “Relative Activity” value in experiment [4] was determined as 119%.
`C[C@H](CCC(=O)NCCC[N+](C)(C)CCCS(=O)(=O)[O-])[C@H]1CC[C@H]2[C@@H]3[C@H](O)C[C@@H]4C[C@H](O)CC[C@]4(C)[C@H]3C[C@H](O)[C@]12C` [CHAPS, ([3-Cholamidopropyl]-dimethylammonio)-1-propane-sulfonate]: the “Relative Activity” value in experiment [4] (setting [9]) is listed as 104%; in experiment [5] (setting [9]), 100%.
`[Ca+2].[Cl-].[Cl-]` [CaCl2]: the “Relative Activity” value was determined as 101% in experiment [4] and 105% in experiment [5].
`[Cd+2]` [Cd^2+]: in the experiment with D-pantolactone hydrolase, the “inhibition of the enzyme” value is on record as “inhibited”.
Take `O=C(O)CC(O)(CC(=O)O)C(=O)O` [Citric acid]: the “Relative Activity” value in experiment [4] (added substance 30 mM, pH 6.4, vs no addition) came out at 97%.
`[Cu+2]` [Cu^2+]: the “inhibition of the enzyme” value with D-pantolactone hydrolase is “inhibited”.
Turning to `O=C1OC(C(O)CO)C(O)C1O` [D-(−)-Gulono-γ-lactone], the Activity result in experiment [3] (pH 6.8) is given as “++ (key: ++: >50 U/l; +: >5 U/l; (+): >0.5 U/l; −: <0.5 U/l)”.
As for `O=C1OC(C(O)CO)C(O)C1O` [D-Galactono-γ-lactone], the Activity result in experiment [2] (pH 6.8) is recorded as “+ (key: ++: >50 U/l; +: >5 U/l; (+): >0.5 U/l; −: <0.5 U/l)”; in experiment [3] (pH 6.8) it was “++ (key: ++: >50 U/l; +: >5 U/l; (+): >0.5 U/l; −: <0.5 U/l)”.
For the molecule `CC1(C)COC(=O)C1O` [D-Pantolactone], the Activity entry is “− (−: <0.5 U/l)” in experiment [2] (setting [10]) and “(+) ((+): >0.5 U/l)” in experiment [3] (setting [10]). Further, the type of inhibition entry in experiment [6] is on record as “competitive inhibition”.
With `O=C1CCc2ccccc2O1` [Dihydrocumarin], the Activity entry in experiment [3] (pH 6.8) is “+ (key: ++: >50 U/l; +: >5 U/l; (+): >0.5 U/l; −: <0.5 U/l)”.
As for `O=C(O)CN(CCN(CC(=O)O)CC(=O)O)CC(=O)O` [EDTA, Ethylenediaminetetraacetic acid], in the experiment on D-pantolactone hydrolase (U.S. Pat. No. 5,372,940), the “inhibition of the enzyme” value was “inhibited”. Also, the “Relative Activity” value in experiment [4] (setting [7]) and in experiment [5] (setting [7]) was 97% each time.
For the molecule `CCOC(=O)C(C)O` (stereo not drawn) [Ethyl (L)(−)-lactate], the Activity result in experiment [2] (setting [10]) and in experiment [3] (setting [10]) was “++ (++: >50 U/l)” throughout.
Consider `CCOC(=O)[C@@H](C)O` [Ethyl D(+)-lactate], for which the Activity result in experiment [2] (setting [10]) and in experiment [3] (setting [10]) was “+ (+: >5 U/l)” in each case.
On to `[Cl][Fe][Cl]` [FeCl2], for which the “Relative Activity” value in experiment [4] is recorded as 104%; in experiment [5], 108%.
For `OO` [H2O2], the “Relative Activity” value in experiment [4] is listed as 95%.
For `[Cl][Hg][Cl]` [HgCl2], the “Relative Activity” value was determined as 133% in experiment [4] and 170% in experiment [5].
Consider `[Hg+2]` [Hg^2+], for which, in the experiment with D-pantolactone hydrolase, the “inhibition of the enzyme” value was “inhibited”.
`O=C1Nc2ccccc2C1=O` [Isatin]: the results for the Activity entry in experiment [2] (setting [11]) and in experiment [3] (setting [11]) were “+ (+: >5 U/l)” and “(+) ((+): >0.5 U/l)”, respectively.
With `CC(C)O` [Isopropanol], the “Relative Activity” value in experiment [4] (added substance 10%, vs no addition) is given as 93%.
As for `[Cl-].[K+]` [KCl], the “Relative Activity” value in experiment [4] is reported as 99%.
Take `O=C1OC(C(O)CO)C(O)C1O` [L-(+)-Gulono-γ-lactone]: the Activity entry in experiment [2] (setting [10]) was “+ (+: >5 U/l)”; in experiment [3] (setting [10]), “++ (++: >50 U/l)”.
Take `O=C1O[C@H]([C@@H](O)CO)[C@@H](O)[C@@H]1O` [L-Galactono-γ-lactone]: the Activity entry in experiment [2] (pH 6.8) and in experiment [3] (pH 6.8) was “++ (key: ++: >50 U/l; +: >5 U/l; (+): >0.5 U/l; −: <0.5 U/l)” each time.
Take `CO` [MeOH]: the “Relative Activity” value in experiment [4] is reported as 100%.
Take `[Cl-].[Cl-].[Mg+2]` [MgCl2]: the figures for the “Relative Activity” value in experiment [4] and in experiment [5] were 99% and 114%, respectively.
For the molecule `[Cl][Mn][Cl]` [MnCl2], the “Relative Activity” value in experiment [4] turned out to be 100%.
As for `Cl.N` [NH4Cl], the “Relative Activity” value in experiment [4] was 100%.
Same read-out and setting: the figure for `[Cl][Ni][Cl]` [NiCl2] is 96%; for `O=S(=O)(F)Cc1ccccc1` [PMSF] it is 113%.
With `CC(C)CC(=O)N[C@H](C(=O)N[C@H](C(=O)N[C@@H](CC(C)C)[C@@H](O)CC(=O)N[C@@H](C)C(=O)N[C@@H](CC(C)C)[C@@H](O)CC(=O)O)C(C)C)C(C)C` [Pepstatin] (Isovaleryl-VV[Sta]A[Sta]-OH), the “Relative Activity” value in experiment [4] (setting [7]) stood at 117%.
As for `CC1(C)COC(=O)[C@H]1O` [S-Pantolactone], the Activity entry in experiment [2] (pH 6.8) and in experiment [3] (pH 6.8) was “++ (key: ++: >50 U/l; +: >5 U/l; (+): >0.5 U/l; −: <0.5 U/l)” throughout.
As to `CCCCCCCCCCCCOS(=O)(=O)[O-].[Na+]` [SDS, Sodium dodecyl sulfate], the “Relative Activity” value in experiment [4] (added substance 1%, vs no addition) came out at 102%; in experiment [5] (added substance 1%, vs no addition, sulfate), 74%.
Turning to `[Cl-].[Cl-].[Zn+2]` [ZnCl2], the “Relative Activity” value in experiment [4] turned out to be 113%; in experiment [5], 99%.
Take `c1cnc2c(c1)ccc1cccnc12` [o-Phenanthroline]: the “Relative Activity” value in experiment [4] stood at 95%.
Turning to `O=S(=O)(O)c1cc[c]([Hg][Cl])cc1` [pCMBS, p-Chloromercuribiphenylsulfonic [sic] acid], the “Relative Activity” value was 108% in experiment [4] and 112% in experiment [5].
For `CC(=O)Oc1cccc2ccccc12` [α-Naphthyl acetate], the Activity result in experiment [2] (setting [8]) and in experiment [3] (setting [8]) was “(+) ((+): >0.5 U/l)” each time.
For `O=C1CCCO1` [γ-Butyrolactone], the results for the Activity result in experiment [2] (pH 6.8) and in experiment [3] (pH 6.8) were “+ (key: ++: >50 U/l; +: >5 U/l; (+): >0.5 U/l; −: <0.5 U/l)” and “++ (key: ++: >50 U/l; +: >5 U/l; (+): >0.5 U/l; −: <0.5 U/l)”, respectively.
For `CC1CCC(=O)O1` (stereo not shown) [γ-Valerolactone], in that order: “+ (key: ++: >50 U/l; +: >5 U/l; (+): >0.5 U/l; −: <0.5 U/l)” and “++ (key: ++: >50 U/l; +: >5 U/l; (+): >0.5 U/l; −: <0.5 U/l)”.
For `CCCCC1CCCC(=O)O1` (stereo not shown) [δ-Nonalactone], in that order: “+ (key: ++: >50 U/l; +: >5 U/l; (+): >0.5 U/l; −: <0.5 U/l)” and “++ (key: ++: >50 U/l; +: >5 U/l; (+): >0.5 U/l; −: <0.5 U/l)”.
Turning to `O=C1CCCCO1` [δ-Valerolactone], the figures for the Activity entry in experiment [2] (setting [12]) and in experiment [3] (setting [12]) were “+ (+: >5 U/l)” and “++ (++: >50 U/l)”, respectively.
On to `O=C1CCCCCO1` [ε-Caprolactone], for which the Activity entry in experiment [2] (pH 6.8) and in experiment [3] (pH 6.8) was “++ (key: ++: >50 U/l; +: >5 U/l; (+): >0.5 U/l; −: <0.5 U/l)” throughout.
Take CoCl2: in experiment [4], the “Relative Activity” value worked out at 97%.
Same read-out and setting: under Triton stands 104%.
